# Data taken from US20030203899A1, “Drugs for incontinence” (priority 2000, published 2003).
# Where a name gives a salt, the structure may show the parent alone.
# Test system: strips of urinary guinea-pig bladder contracted with carbacol
# Assay: Inhibition of bladder contraction: relaxation of guinea-pig urinary bladder strips contracted with carbacol, in vitro
# Format: cell-based
# Settings: strips contracted with carbacol 10^−6 M, placebo = 100
# Source text: The activity in the urinary incontinence of the compounds according to the present invention has been evaluated in an experimental model of inhibition of the bladder contraction.
# The degree of the relaxation induced in the urinary bladder is a measure of the inhibitory action of the urinary incontinence of the drugs described in the present application.
# Guinea-pigs of male sex having an average weight equal to 300-500 g were sacrificed and bled. The urinary bladder was removed and prepared for determining the myorelaxing activity in vitro, according to the method described by L. Nilvenbrant, Eur. J. Pharmacol. 327,195-207, 1997.
# The obtained tissue strips were contracted with carbacol 10^−6 M in phisiological solution and the relaxation was determined in the presence of the compounds indicated in Table 1 at the concentrations mentioned therein. The 2-(acetyloxy) benzoic acid 6-(nitroxymethyl)-2-methylpyridyl ester hydrochloride was prepared according to Example 1 of patent application PCT/EP 00/01454 (NCX 4050).
Compound,"Bladder strip contraction, % of placebo (compound 3 × 10 − 5 M) [%]","Bladder strip contraction, % of placebo (compound 10^−6 M) [%]"
"CCCc1nn(C)c2c(=O)[nH]c(-c3cc(S(=O)(=O)N4CCN(C)CC4)ccc3OCC)nc12 [Sildenafil Citrate, sildenafil citrate, reference compound]",52,–
"CC(=O)Oc1ccccc1C(=O)Oc1ccc(CO[N+](=O)[O-])nc1C.Cl [NCX 4050, 2-(acetyloxy) benzoic acid 6-(nitroxymethyl)-2-methylpyridyl ester hydrochloride]",71,–
oxybutynin nitrate salt,–,0
"CCN(CC)CC#CCOC(=O)C(O)(c1ccccc1)C1CCCCC1 (centres unmarked) [Oxybutynin Hydrochloride (Comp), oxybutynin hydrochloride, reference compound]",–,30
sildenafil nitrate salt,31,–
